Reference: US6699877B2 (Gruenenthal GmbH, priority 2000, dated 2004)

Columns and labels:
AMPA receptor channels = assay: AMPA-induced ionic currents in RNA-injected Xenopus oocytes; format: cell-based, rat; details: 10 μmol/l compound; AMPA 100 μmol/l; n = 2
Experimental: Xenopus oocytes from stages V and VI (Dumont, J. N., Journal of Morphology, Vol. 136, 1972) were micro-injected with total RNA from brain tissue of adult rats (100-130 ng/cell) and kept in the culture medium (composition in mmol/l: 88.0 NaCl, 1.0 KCl, 1.5 CaCl2, 0.8 MgSO4, 2.4 NaHCO3, 5 HEPES, 100 IU/ml penicillin, 100 μg/ml streptomycin, pH 7.4) for up to 10 days at 20° C. Transmembranous ionic currents were recorded as in conventional two-electrode voltage clamp technology with a holding potential of −70 mV (P. Bloms-Funke P, M. Madeja, U. Muβhoff, E.-J. Speckman, Neuroscience Letters, Vol. 205, p. 115, 1996). The OTC interface and the Cellworks Software were used for recording data and controlling the test apparatus (npi, FRG). […] To test the effects of substances brought about via the glycine B-binding site of the NMDA receptor channel, the glycine dosage/response curve was recorded with and without the respective compound according to the invention. […] The data was analyzed using Igor-Pro software (Version 3.1, WaveMetrics USA). […] The significance for unpaired measured quantities is determined by the Mann-Whitney U-Test and for paired measured quantities by the Wilcoxon test (Sysstat. SPSS Inc., USA). EC50 values are calculated according to the following formula: […]

NMDA receptor channel = biological target: T1, NMDA receptor channel (Rattus norvegicus, UniProt P35439); assay: NMDA/glycine-induced ionic currents in RNA-injected Xenopus oocytes (two-electrode voltage clamp); format: cell-based
T1 construct: were micro-injected with total RNA from brain tissue of adult rats; expressed in transfected cells; host or cells: Xenopus laevis oocytes injected with total RNA from adult rat brain
Experimental: NMDA/Glycine-induced Ionic Currents in RNA-injected Xenopus Oocytes
The experiment to determine functional changes in the NMDA receptor channel due to the compound according to the invention of Formula I was carried out on oocytes of the South African clawed frog, Xenopus laevis. Neuronal NMDA receptor channels were formed for this purpose after injection of RNA from rats' brain into oocytes and were measured by coapplication of NMDA and glycine-activated ionic currents.
Xenopus oocytes from stages V and VI (Dumont, J. N., Journal of Morphology, Vol. 136, 1972) were micro-injected with total RNA from brain tissue of adult rats (100-130 ng/cell) and kept in the culture medium (composition in mmol/l: 88.0 NaCl, 1.0 KCl, 1.5 CaCl2, 0.8 MgSO4, 2.4 NaHCO3, 5 HEPES, 100 IU/ml penicillin, 100 μg/ml streptomycin, pH 7.4) for up to 10 days at 20° C. Transmembranous ionic currents were recorded as in conventional two-electrode voltage clamp technology with a holding potential of −70 mV (P. Bloms-Funke P, M. Madeja, U. Muβhoff, E.-J. Speckman, Neuroscience Letters, Vol. 205, p. 115, 1996). […] To test the effects of substances brought about via the glycine B-binding site of the NMDA receptor channel, the glycine dosage/response curve was recorded with and without the respective compound according to the invention. […] The data was analyzed using Igor-Pro software (Version 3.1, WaveMetrics USA). […]

- Kb (NMDA receptor channel; NMDA 100 μmol/l with glycine 0-100 μmol/l, oocytes injected with rat brain RNA, read-out: NMDA/glycine-induced ionic currents pA2 value of glycine dosage/response curve (converted)): 398 nM
SMILES: O=C(O)C1Nc2cc(Cl)cc(Cl)c2C2C=CCC12 (stereo not drawn) [Example 2, 7,9-dichloro-3a,4,5,9b-tetrahydro-3H-cyclopenta[c]quinoline-4-carboxylic Acid]
- AMPA-induced ionic currents Inhibition with 10 μmol/l of compounds according to the invention (AMPA receptor channels): 5.4% (n = 2)
- Effect on the glycine dosage/response curve (FIG. 1) (NMDA receptor channel; RNA-injected oocytes, amplitude standardized to NMDA/glycine (100/10 μmol/l)): displacement of the glycine dosage/response curve to the right
